According to US9227971B2, “Pyrazolo[1,5-a]pyrimidine compounds as mTOR inhibitors” (Merck Sharp & Dohme Corp., priority 2010, dated 2016):
Where two headings read alike, the source gives them in different places.

Experiments:
[1] = tested on: phosphorylated AKT Ser473 (pAKT S473), mTORC2 activity, PC3 cells; assay: mTOR target engagement assay, immunofluorescent cell-based, pAKT S473 readout (mTORC2 activity)
Procedure, shortened: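 After blocking, cells were stained overnight at 4 °C with anti-pAKT S473 antibody, then a fluorescent secondary; inhibition was read as reduced fluorescence intensity.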

[2] = tested on: phosphorylated 4E-BP1 Thr37/46 (p4E-BP1 Thr37/46), mTORC1 activity, PC3 cells; assay: mTOR target engagement assay, immunofluorescent cell-based, p4E-BP1 Thr37/46 readout (mTORC1 activity); settings: read-out: p4E-BP1 Thr37/46 IC50
Procedure, shortened: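 Cell-based immunofluorescence in PC3 cells: serially diluted compounds (0.25% DMSO, 5% FBS) applied for ninety minutes at 37° C before fixation and overnight 4° C staining of p4E-BP1 Thr37/46. Untreated DMSO wells set maximal phosphorylation; IC50 obtained by logistic fitting.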

[3] = Homo sapiens, PC-3, PC3 cells, compound treatment ninety minutes at 37° C.
[4] = Homo sapiens, PC-3, Table 3-1, PC3 cells
[5] = Homo sapiens, PC-3, Table 6-1, PC3 cells

`CC(=O)c1c([C@@H]2C[C@H]3CC[C@@H](C2)N3C(=O)c2nnc[nH]2)nc2c(-c3cnc(C(C)(C)O)nc3)cnn2c1N` [Compound 1.1.180, 1-(5-((1R,3s,5S)-8-(4H-1,2,4-triazole-3-carbonyl)-8-azabicyclo[3.2.1]octan-3-yl)-7-amino-3-(2-(2-hydroxypropan-2-yl)pyrimidin-5-yl)pyrazolo[1,5-a]pyrimidin-6-yl)ethanone] was tested. Which IC50 [1, 3] did it give?
Its IC50 is 100 to 1000 nM.

And the IC50 [2, 3]?
Its IC50 is 100 to 1000 nM.

Which IC50 [1, 4] does the source give for `CNC(=O)c1ccc(-c2cnn3c(N)c(S(C)(=O)=O)c([C@@H]4C[C@H]5CC[C@@H](C4)N5C(=O)c4nc[nH]n4)nc23)cn1` [Compound 3.17, 5-(5-((1R,3s,5S)-8-(1H-1,2,4-triazole-3-carbonyl)-8-azabicyclo[3.2.1]octan-3-yl)-7-amino-6-(methylsulfonyl)pyrazolo[1,5-a]pyrimidin-3-yl)-N-methylpicolinamide] here?
The IC50 was over 10000 nM.

What about the IC50 [2, 4] of the same compound?
Its IC50 is 1000 to 10000 nM.

Which results are given for `COCc1c([C@@H]2C[C@H]3CC[C@@H](C2)N3C(=O)c2nnc[nH]2)nc2c(-c3ccc(-c4ccc(OC)cc4)nc3)cnn2c1N` [Compound 5.6, ((1R,3s,5S)-3-(7-amino-6-(methoxymethyl)-3-(6-(4-methoxyphenyl)pyridin-3-yl)pyrazolo[1,5-a]pyrimidin-5-yl)-8-azabicyclo[3.2.1]octan-8-yl)(4H-1,2,4-triazol-3-yl)methanone]?
IC50 [1, 3]: 1 to 100 nM; IC50 [2, 3]: 1 to 100 nM

For `CC(C)(O)c1ncc(-c2cnn3c(N)c(S(C)(=O)=O)c([C@@H]4C[C@H]5CC[C@@H](C4)N5C(=O)c4nnc[nH]4)nc23)cc1Cl` [Compound 3.158, ((1R,3s,5S)-3-(7-amino-3-(5-chloro-6-(2-hydroxypropan-2-yl)pyridin-3-yl)-6-(methylsulfonyl)pyrazolo[1,5-a]pyrimidin-5-yl)-8-azabicyclo[3.2.1]octan-8-yl)(4H-1,2,4-triazol-3-yl)methanone], which IC50 [1, 4] is on record?
The IC50 was 1 to 100 nM.

And the IC50 [2, 4]?
The IC50 was 1 to 100 nM.

What does the source list for `CS(=O)(=O)c1c([C@]2(O)C[C@H]3CC[C@@H](C2)N3C(=O)c2nnc[nH]2)nc2c(-c3ccc(-c4ccccc4)nc3)cnn2c1N` [Compound 8.22, ((1R,3r,5S)-3-(7-amino-6-(methylsulfonyl)-3-(6-phenylpyridin-3-yl)pyrazolo[1,5-a]pyrimidin-5-yl)-3-hydroxy-8-azabicyclo[3.2.1]octan-8-yl)(4H-1,2,4-triazol-3-yl)methanone]?
IC50 ([1]; Homo sapiens, PC-3, PC3 cells): 100 to 1000 nM; IC50 ([2]; Homo sapiens, PC-3, PC3 cells): 1000 to 10000 nM

`COc1ncc(-c2ccc(-c3cnn4c(N)c(S(C)(=O)=O)c([C@@H]5C[C@H]6CC[C@@H](C5)N6C(=O)c5nnc[nH]5)nc34)cn2)cn1` [Compound 3.58, ((1R,3s,5S)-3-(7-amino-3-(6-(2-methoxypyrimidin-5-yl)pyridin-3-yl)-6-(methylsulfonyl)pyrazolo[1,5-a]pyrimidin-5-yl)-8-azabicyclo[3.2.1]octan-8-yl)(4H-1,2,4-triazol-3-yl)methanone] was tested. Which IC50 ([1]; Table 3-1, PC3 cells) did it give?
The IC50 was 1000 to 10000 nM.

And the IC50 ([2]; Table 3-1, PC3 cells)?
Its IC50 is 1000 to 10000 nM.

Which IC50 [1, 4] does the source give for `COCCOCC(=O)N1[C@@H]2CC[C@H]1C[C@H](c1nc3c(-c4ccc(-c5ccccc5)nc4)cnn3c(N)c1S(C)(=O)=O)C2` [Compound 3.72, 1-((1R,3s,5S)-3-(7-amino-6-(methylsulfonyl)-3-(6-phenylpyridin-3-yl)pyrazolo[1,5-a]pyrimidin-5-yl)-8-azabicyclo[3.2.1]octan-8-yl)-2-(2-methoxyethoxy)ethanone] here?
Its IC50 is 1000 to 10000 nM.

And the IC50 [2, 4]?
The IC50 was 1000 to 10000 nM.

Which IC50 [1, 4] does the source give for `CS(=O)(=O)c1c([C@@H]2C[C@H]3CC[C@@H](C2)N3C(=O)c2ccc(O)cn2)nc2c(-c3ccc(-c4ccccc4)nc3)cnn2c1N` [Compound 3.16, ((1R,3s,5S)-3-(7-amino-6-(methylsulfonyl)-3-(6-phenylpyridin-3-yl)pyrazolo[1,5-a]pyrimidin-5-yl)-8-azabicyclo[3.2.1]octan-8-yl)(5-hydroxypyridin-2-yl)methanone] here?
The IC50 was 1 to 100 nM.

What about the IC50 [2, 4] of the same compound?
The IC50 was 100 to 1000 nM.

What does the source list for `COc1ccc(-c2ccc(-c3cnn4c(N)c(C(C)=O)c([C@@H]5C[C@H]6CC[C@@H](C5)N6C(=O)c5nnc[nH]5)nc34)cn2)cc1` [Compound 1.1.46, 1-(5-((1R,3s,5S)-8-(4H-1,2,4-triazole-3-carbonyl)-8-azabicyclo[3.2.1]octan-3-yl)-7-amino-3-(6-(4-methoxyphenyl)pyridin-3-yl)pyrazolo[1,5-a]pyrimidin-6-yl)ethanone]?
IC50 [1, 3]: 1 to 100 nM; IC50 [2, 3]: 1 to 100 nM

`Nc1c(C2CC2)c([C@H]2CC3CC[C@H](C2)N3C(=O)c2nnc[nH]2)nc2c(-c3cnc4c(c3)CCCC4O)cnn12` (stereo partly drawn) [Compound 7.54, ((1R,3s,5S)-3-(7-amino-6-cyclopropyl-3-(8-hydroxy-5,6,7,8-tetrahydroquinolin-3-yl)pyrazolo[1,5-a]pyrimidin-5-yl)-8-azabicyclo[3.2.1]octan-8-yl)(4H-1,2,4-triazol-3-yl)methanone] was tested. Which IC50 ([1]; Homo sapiens, PC-3, PC3 cells) did it give?
The IC50 was 1 to 100 nM.

And the IC50 ([2]; Homo sapiens, PC-3, PC3 cells)?
The IC50 was 1 to 100 nM.

How did the IC50 [1, 3] turn out when `COc1cc(F)c(-c2ccc(-c3cnn4c(N)c(C(C)=O)c([C@@H]5C[C@H]6CC[C@@H](C5)N6C(=O)c5nnc[nH]5)nc34)cn2)cc1F` [Compound 1.1.72, 1-(5-((1R,3s,5S)-8-(4H-1,2,4-triazole-3-carbonyl)-8-azabicyclo[3.2.1]octan-3-yl)-7-amino-3-(6-(2,5-difluoro-4-methoxyphenyl)pyridin-3-yl)pyrazolo[1,5-a]pyrimidin-6-yl)ethanone] was run?
Its IC50 is 1 to 100 nM.

And the IC50 [2, 3]?
The IC50 was 1 to 100 nM.

Which IC50 [1, 5] does the source give for `C=C(C)c1c([C@@H]2C[C@H]3CC[C@@H](C2)N3C(=O)CO)nc2c(-c3ccc(-c4ncc[nH]4)nc3)cnn2c1N` [Compound 6.7, 1-((1R,3s,5S)-3-(3-(6-(1H-imidazol-2-yl)pyridin-3-yl)-7-amino-6-(prop-1-en-2-yl)pyrazolo[1,5-a]pyrimidin-5-yl)-8-azabicyclo[3.2.1]octan-8-yl)-2-hydroxyethanone] here?
The IC50 was 1 to 100 nM.

What about the IC50 [2, 5] of the same compound?
Its IC50 is 1 to 100 nM.

What does the source list for `CS(=O)(=O)c1c([C@@H]2C[C@H]3CC[C@@H](C2)N3c2noc(=O)[nH]2)nc2c(-c3ccc(-c4ccccc4)nc3)cnn2c1N` [Compound 8.74, 3-((1R,3s,5S)-3-(7-amino-6-(methylsulfonyl)-3-(6-phenylpyridin-3-yl)pyrazolo[1,5-a]pyrimidin-5-yl)-8-azabicyclo[3.2.1]octan-8-yl)-1,2,4-oxadiazol-5(4H)-one]?
IC50 ([1]; Homo sapiens, PC-3, PC3 cells): 1000 to 10000 nM; IC50 ([2]; Homo sapiens, PC-3, PC3 cells): > 10000 nM

For `CC(=O)c1c([C@@H]2C[C@H]3CC[C@@H](C2)N3C(=O)c2nnc[nH]2)nc2c(-c3ccc(-n4cnc(C)c4)nc3)cnn2c1N` [Compound 1.1.128, 1-(5-((1R,3s,5S)-8-(4H-1,2,4-triazole-3-carbonyl)-8-azabicyclo[3.2.1]octan-3-yl)-7-amino-3-(6-(4-methyl-1H-imidazol-1-yl)pyridin-3-yl)pyrazolo[1,5-a]pyrimidin-6-yl)ethanone], which IC50 [1, 3] is on record?
Its IC50 is over 10000 nM.

What about the IC50 [2, 3] of the same compound?
The IC50 was over 10000 nM.

`CC(=O)c1c([C@@H]2C[C@H]3CC[C@@H](C2)N3C(=O)c2nnc[nH]2)nc2c(-c3ccc(-c4cc(F)cc(F)c4)nc3)cnn2c1N` [Compound 1.1.100, 1-(5-((1R,3r,5S)-8-(4H-1,2,4-triazole-3-carbonyl)-8-azabicyclo[3.2.1]octan-3-yl)-7-amino-3-(6-(3,5-difluorophenyl)pyridin-3-yl)pyrazolo[1,5-a]pyrimidin-6-yl)ethanone] was tested. Which IC50 [1, 3] did it give?
The IC50 was 100 to 1000 nM.

What about the IC50 [2, 3] of the same compound?
Its IC50 is 100 to 1000 nM.
